Test results taken from US20210128520A1, “NEUROPROTECTIVE ISOFLAVONE COMPOSITIONS AND METHODS” (UNM Rainforest Innovations, priority 2017, published 2021).
“Also recorded” adds a separate entry of the source.

Columns and labels:
[1] = tested on: rat MCAO ischemia-reperfusion model; assay: MCAO cerebral ischemia-reperfusion model, infarct volume (TTC) and neurology score; assay type: in vivo; details: for infarct volume in comparison with vehicle group: 20 μmol/kg i.p., single isoflavone; for infarct volume in comparison with vehicle group / infarct volume: 1.5 h MCAO + 22.5 h reperfusion; for neurological function (neurological deficit score) versus vehicle group: 60 μmol/kg i.p.; for infarct volume: 60 μmol/kg i.p. 30 min before MCAO, vehicle 27.93%±7.1%
Description: Male adult Sprague-Daweley rats (250 g to 270 g) were obtained from Laboratorial Animal Unit, the University of Hong Kong (HKU) and University of New Mexico (UNM). All animal experiments were approved and regulated by the Committee on the Use of Live Animals in Teaching and Research, HKU and the Laboratory Animal Care and Use Committee, UNM. All efforts were made to minimize animal suffering and to reduce the number of animals used.
Rats were subjected to MCAO to induce cerebral ischemia-reperfusion as previously described (Shen et al., 2006. J Neurochem 96(4):1078-1089). Briefly, rats were anaesthetized by inhalation of 5% isoflurane and maintained with 2% isoflurane in a mixture of 70% N2O and 30% 02. After vessels isolation, a 3/0 monofilament nylon suture (Johnson & Johnson Health Care Systems, Inc., Piscataway, N.J.) was inserted into the external carotid artery and advanced into the internal carotid artery and anterior cerebral artery to occlude the middle cerebral artery. After occlusion for 1.5 hours, the suture was removed to induce reperfusion and maintained for 22.5 hours. After operation, rats were transferred to intensive care incubator in which the temperature was kept at 37° C. until animals woke up completely.
Isoflavones (C, F, and D) were dissolved in dimethyl sulfoxide (DMSO) and diluted with peanut oil to the indicated working solution and intraperitoneally (i.p.) injected to rats 30 minutes before suture insertion for MCAO. The same volume of DMSO and peanut oil were used as vehicle control. In parallel experiments, for mechanistic study, ER antagonist ICI 182780 or PI3K inhibitor LY-294002 was intracerebroventricularly (i.c.v.) injected into the rat lateral ventricle 60 minutes before ischemia onset. Briefly, after anaesthetization, rat was placed on a stereotaxic apparatus and fixed well. A 22-gauge, 12 mm stainless-steel guide cannula was inserted in the left lateral ventricle of the brain. The needle was inserted 4.5 mm deep, 1.5 mm lateral to sagiture and 0.8 mm posterior to bregma to reach the lateral ventricle. Then, ICI 182780 dissolved in DMSO (1 μM) or LY-294002 (10 mM) was slowly injected into lateral ventricle and the needle was kept for at least 30 seconds before removal. The same volume of DMSO was used as a negative control.
After 24 hours of reperfusion, rat brains were isolated and sliced into coronal sections followed by staining with 2,3,5-triphenyltetrazolium chloride (TTC, Sigma-Aldrich, St. Louis, Mo.) at 37° C. for 20 minutes. The ischemic area was evaluated by calculating the hemispheric lesion area with ImageJ software (ImageJ-1.38x; Schneider et al., 2012. Nature methods 9(7):671-675), the relative infarct volume percentage (RIVP) was calculated as RIVP=IVA/TA×100%, IVA was the total infract area of five coronal sections, TA was the total area of five sections.
Neurological function was determined by 9-scale methods containing dysfunctional paw test, postural reflex test and circling test according to a previous report (Bederson et al., 1986. Stroke 17(3):472-476). Each score was summed and represented as a single overall neurological score (0 to 8).

[2] = tested on: primary cultured cortical neurons; assay: OGD/RO-induced cell death in primary cultured cortical neurons, LDH release assay; assay type: cell-based, rat; details: 2.5 μM of each isoflavone, pre-treatment, 4 h OGD + 20 h RO
Experimental: Primary cultured cortical neurons were isolated from embryonic Sprague-Dawley rats (E17). After digested by 0.25% trypsin (Invitrogen Corp., Carlsbad, Calif.), cells were collected and suspended in Dulbecco's modified eagle medium (DMEM) containing 10% horse serum, 1% L-glutamine and antibiotic mixture. The resulting single cell suspensions were seeded on 24-well or 6-well plates pre-treated with poly-D-lysine (Sigma-Aldrich, St. Louis, Mo.). After seeded for four hours, medium was replaced with neurobasal medium containing 2% B27, 1% L-glutamine and antibiotics mixture and cell culture was maintained at 37° C. and 5% CO2.
Both oxygen-glucose deprivation plus reoxygenation (OGD/RO) and excitotoxicity experiments were conducted. In OGD/RO experiments, primary cultured neurons were exposed to neurobasal medium without glucose and incubated in a hypoxia chamber (Billups-Rothenberg, Inc., San Diego, Calif.) perfused with a mixed gas containing 95% N2 and 5% CO2 until medium oxygen concentration reached 0.1%, which was monitored with a PA-10A paramagnetic 02 analyzer (Sable Systems International, North Las Vegas, Nev.). After cells were exposed to OGD at 37° C. for four hours, the medium was replaced with normal glucose-containing medium and the plates were put into normal culture condition for 20 hours for reoxygenation. In excitotoxicity experiments, primary cultured neurons were treated with L-glutamate (8 mM, Sigma-Aldrich, St. Louis, Mo.) for six hours. […]
LDH release assay was performed for detecting cell death with Cytotoxicity Detection Kit (Invitrogen Corp., Carlsbad, Calif.). In brief, culture medium was collected and incubated with the reaction mixture for 30 minutes at room temperature (24° C.). […] The optical density of the solution was measured at 490 nm on a microplate reader (Model 3350, Bio-Rad Laboratories, Inc., Hercules, Calif.). The cell death rate was calculated by using the formula: Cell death rate (%)=(Experimental absorbance value−culture medium absorbance value)/(Triton-X 100-treated absorbance value−culture medium absorbance value)×100%.

[3] = AR extract orally administrated to rats; cited from earlier work

COc1ccc(-c2coc3cc(O)ccc3c2=O)cc1O [C, calycosin]
infarct volume in comparison with vehicle group [1]: no statistical difference; also recorded: no significant effect | neurological function (neurological deficit score) versus vehicle group [1]: much improved neurological function | infarct volume [1]: 10.99±6.07% | effect of ICI 182780 co-treatment on neuroprotective effect on infarct volume ([1]; ICI 182780 i.c.v. 1 h before ischemia, isoflavone i.p. 30 min before ischemia): partially blocked | reduction in the rate of cell death as compared to vehicle control, OGD/RO [2]: 2%

O=c1c(-c2ccc(O)cc2)coc2cc(O)ccc12 [D, daidzein]
infarct volume in comparison with vehicle group [1]: no statistical difference | infarct volume in comparison with vehicle group ([1]; listed as daidzein): no significant effect | neurological function (neurological deficit score) versus vehicle group [1]: much improved neurological function | infarct volume [1]: 13.84±0.95% | reduction in the rate of cell death as compared to vehicle control, OGD/RO [2]: 2%

COc1ccc(-c2coc3cc(O)ccc3c2=O)cc1 [F, formononetin]
fraction metabolized into D and its conjugates [3]: about 50% | infarct volume in comparison with vehicle group [1]: no significant effect | infarct volume [1]: 10.76±4.21% | reduction in the rate of cell death as compared to vehicle control, OGD/RO [2]: 2%
